87 compounds from a melting point compilation (Tetko et al.; mined from patent text by program, amines drawn as free bases though some values may be those of a salt) can be followed below.

Each structure is given as a SMILES string. Some results are limits rather than exact numbers.

As to `CC(C)c1ccc2c(c1)C(=O)c1ccc(-c3nnn(C)n3)cc1S2(=O)=O`, the melting point (commonly the temperature, or range, at which the solid turns liquid) was 219 to 221 °C.
For the compound `COCC(=O)Nc1cccc(-n2nc(OC)c(=O)n(Cc3ccc(Cl)cc3)c2=O)c1`, the melting point came to 143 °C.
In turn, `CCOC(=O)/C=C/C=C/c1ccc(CCc2nc(-c3ccccc3)oc2C)cc1` registered a melting point of 82 to 83 °C.
As for `Cn1c(=O)c2c(ncn2Cc2noc(O)n2)n(C)c1=O`, the melting point fell in the range of 206 to 207 °C.
Next, `CC(C)(C)OC(=O)Nc1cc(OC(C)(C)C)c(C#Cc2ccc(F)cc2)cc1[N+](=O)[O-]`: 201 °C.
In the case of `O=C(Nc1cccnc1)N1CCc2cc(I)ccc21`, the melting point fell in the range of 210 to 215 °C.
With `O=C1CCN2CC3c4ccccc4CCc4cccc(c43)C2C1` (configuration not stated) the figure was 163 to 165 °C; with `Nc1ccc(C(=O)c2ncco2)c(Cl)c1`, 92 to 94 °C.
`CC(C)(CO)NS(=O)(=O)c1cc(NC(=O)c2cnn3c(C(F)(F)F)cc(-c4ccc(Cl)cc4)nc23)c(Cl)s1`: the melting point is 272 °C.
Next, `NC(=S)Nc1ccc(Cl)c(Cl)c1Cl`: 115 to 117 °C; `CC(C)(C)c1cc(C(=O)N2CCN(c3ccc(N)cc3)CC2)cc(C(C)(C)C)c1O`: 221 to 222 °C; `Cc1ccc(O)c(C)c1N`: 177 to 179 °C.
With `Nc1ncnc2c1nc(O)n2Cc1ccc(F)cc1` the figure was 270 to 272 °C; with `CCS(=O)(=O)c1ccccc1S(N)(=O)=O`, 179 to 181 °C; with `CC(=O)c1c(O)cccc1OCCCCCOc1ccc2cc(C(=O)O)ccc2c1`, 190 to 193 °C.
Compound `CCN(CC)C(=O)/C(=C/C=C/c1cc2ccccc2[nH]1)OC` gave a melting point of 141 to 143 °C.
In turn, `NNC(=O)Cc1cccc(OCCN2CCC(Cc3ccccc3)CC2)c1` displayed a melting point of 89 to 91 °C.
As to `Cc1c(-c2ccccc2)[nH]c(=O)n1C1CCN(Cc2cccc(Br)c2)CC1`, the melting point lay within 263 to 265 °C.
Next, `O=C(NC1CCN(CCCOc2ccccc2-c2nnn[nH]2)CC1)c1ccccc1`: 275 to 277 °C.
In turn, `CC(=O)N1N=C(C=Cc2ccc([N+](=O)[O-])cc2)c2cc3c(cc2CC1C)OCO3` (configuration not stated) showed a melting point of 188 to 190 °C.
For the compound `CN(C)C(=O)CC1=C(n2nc(-c3c(-c4ccccc4)nn4ccccc34)ccc2=O)CCCC1`, the melting point was in the range of 80 to 81 °C.
`CCOC(=O)CSc1ccc([N+](=O)[O-])cc1C1C(C(=O)OC)=C(C)N(C)C(C)=C1C(=O)OC` yielded a melting point of 118 °C.
Regarding `CC(C)(C)CC(C)(C)c1ccc(Oc2cc(N)c(O)cc2[N+](=O)[O-])cc1`, the melting point lay in the range of 187 to 189 °C.
For `Cc1nc2cccc(C(F)(F)F)c2c(=O)n1C1CCC(=O)NC1=O` (configuration not stated), the melting point lay within 268 to 270 °C.
Next, `Cc1ccc(NC(=O)c2ccc(CN3CCN(C)CC3)c(C(F)(F)F)c2)cc1NC(=O)N(C)c1cc(N)ncn1`: 192 to 193 °C; `CN(CCOc1ccc(Cn2cc(CCC(=O)O)c(-c3ccccc3)c2)cc1)c1ccccn1`: 110 to 111 °C.
As for `FC(F)(F)c1cccc(-c2ccn3nccc3n2)c1`, the melting point was 117 to 118 °C.
In turn, `CC(=O)Nc1ccccc1C(=O)C1CCCCC1` registered a melting point of 66 °C.
`Cc1cc(CN(Cc2ccc(F)cc2)c2cc(-c3ccc(C(F)(F)F)cc3)nn2C)cc(C)c1OC(C)(C)C(=O)O`: the melting point was more than 90 °C.
The compound `Cc1nc(N)sc1S(=O)(=O)N(CCO)CCO` yielded a melting point of 141 °C.
As to `O=C(c1cccs1)c1cnn2c(-c3cc([N+](=O)[O-])ccc3Cl)ccnc12`, the melting point was in the range of 162 to 166 °C.
For `COC(=O)c1ccc(N(C)C)cn1`, the melting point was 100 to 103 °C.
For `Cc1nc2c(Cl)cc(F)c([N+](=O)[O-])c2s1`, the melting point fell in the range of 130 to 132 °C.
`COC(=O)c1cc(NC(C)=O)c([N+](=O)[O-])cc1C(=O)OC` registered a melting point of 119 to 120 °C.
Take `CC(C)(Sc1ccc2c(-c3ccccc3F)noc2c1Cl)C(=O)O`: the melting point turned out to be 149 °C.
Compound `CCN1C(=O)N(SC(Cl)(Cl)Cl)C(=O)C1(C)C` returned a melting point of 141 to 142 °C.
With `CC(=O)NC[C@H]1CN(c2ccc(N3CCC(F)(CC#N)CC3)c(F)c2)C(=O)O1`, the melting point fell in the range of 210 to 212 °C.
With `COC(=O)C(=NO)c1cnsc1`, the melting point lay within 110 to 112 °C.
`Clc1ccc(Nc2ccnc(-c3cccc(Cl)n3)n2)cc1` had a melting point of 174 to 176 °C.
With `Cc1cccc(NC(=O)NC(C(=O)N(c2ccccc2)c2ccccc2)c2ccccc2)c1` (racemic), the melting point came to 181 °C.
With `O=C(O)CCCc1ccc(C(=O)C=Cc2ccccc2)cc1`, the melting point is 111 to 112 °C.
`COc1ccc(S(=O)(=O)N2C(=O)[C@@](c3ccccc3OC)(N3C[C@H](OC(=O)CCC(=O)O)C[C@H]3C(=O)N(C)C)c3cc(Cl)ccc32)c(OC)c1` yielded a melting point of 225 to 228 °C.
Compound `CCOC(=O)C(C)c1ccc(-c2ccc(F)cc2F)c(O)c1` (configuration not stated) returned a melting point of 72 to 73 °C.
With `NC(=O)c1nc(CN2CCOCC2)n(-c2ccc(Cl)cc2C(=O)c2ccccc2Cl)n1` the figure was 165 to 167 °C; with `Sc1nc2cnccc2[nH]1`, more than 320 °C; with `Cn1ccc(NC(=S)S)n1`, 79 to 82 °C.
`CCC(=O)c1ccc(O)c(CNC(=O)CCl)c1` came in with a melting point of 143 to 145 °C.
Next, `CCOC(=O)C1=C(C)N(C(C)=O)C(c2csc(C)n2)=NC1c1ccccc1` (configuration not stated): 140 to 142 °C; `O=C(c1ccc(Cl)cc1)c1ccc(-n2ccnc2)nc1`: 155 to 156 °C; `COC(=O)c1cccc(OS(=O)(=O)C(F)(F)F)c1O`: 91.8 to 92.3 °C.
With `CN1CCC(c2c[nH]c3ccc(NC(=O)c4ccncc4)nc23)CC1` the figure was 126 to 128 °C; with `Cc1oc(-c2ccccc2)nc1CCOc1ccc(Cn2cc(CCC(=O)O)c(-c3ccccc3)c2)cc1`, 147 to 148 °C; with `Cc1cc(C)c2ncc(C#N)c(-c3ccccc3Cl)c2c1`, 153 to 154 °C.
For `COc1cc(COc2nn(-c3ccccc3)cc2/C=C/P(=O)(OC)OC)ccc1OCc1nc(-c2ccco2)oc1C`, the melting point was in the range of 107 to 108 °C.
For the compound `CCCCC(CC)COc1ccc(-c2nc(-c3ccc(OCC(CC)CCCC)cc3)nc(-c3ccc(OCC(CC)CCCC)cc3O)n2)cc1` (configuration not stated), the melting point fell in the range of 93 to 95 °C.
Turning to `O=C(CCCCCNC(=O)C(=O)c1cn2c3c(cccc13)CCC2)NOCc1ccccc1`, the melting point lay within 119 to 121 °C.
Consider `N#CNC1=NC(c2ccc(OC(F)(F)F)cc2)(c2cccc(-c3cncnc3)c2)C2=NCCCN12` (configuration not stated), for which the melting point lay in the range of 227 to 231 °C.
Turning to `CC(Oc1ccccc1)C(=O)NCCO[N+](=O)[O-]` (configuration not stated), the melting point is 74 to 75 °C.
Regarding `COC1CN(c2ccc(N3C[C@H](CNC(C)=O)OC3=O)cc2F)C1`, the melting point was in the range of 160 to 162 °C.
Next, `COc1ccc(C2Sc3ccccc3N(CCN(C)C)C(=O)C2OC(=O)c2cccc([N+](=O)[O-])c2)cc1` (configuration not stated): 178 to 180 °C.
For `CCCn1c(=O)c2[nH]c(-c3cc(C)n(CC(=O)Nc4ccc(C)c(C)c4)n3)nc2n(CCC)c1=O`, the melting point lay within 261 to 265 °C.
In turn, `CC(C)(C)c1cc(CCC(=O)O)cc(-n2nc3ccc(Sc4ccccc4)cc3n2)c1O` had a melting point of 154 to 156 °C.
Turning to `CCS(=O)(=O)c1ccc(-c2coc3ccc(-c4nnc(C)o4)cc23)cc1`, the melting point is 180 to 181 °C.
With `COc1cc(N)c(Cl)cc1C(=O)NC1CC2CCCCN2C1` (configuration not stated) the figure was 192 to 193 °C.
Compound `O=c1nc(-c2cccc(CN3CCC(Cc4ccccc4)CC3)n2)sc2ccccc12` yielded a melting point of 151 to 153 °C.
As for `Cc1cccc(-n2c(-c3sc(Nc4ccc(Cl)cc4)nc3C)nc3ccccc3c2=O)c1`, the melting point was in the range of 236 to 238 °C.
Next, `CCOC(=O)C1=C(COCCNC(=O)N2CCN(C)CC2)NC(C)=C(C(=O)OC)C1c1ccccc1Cl` (configuration not stated): 78 to 80 °C.
Compound `CC1(C)c2cc(C#N)ccc2OC1Cl` (configuration not stated) yielded a melting point of 105 to 106 °C.
Next, `Cc1cc(C)c(CS(=O)c2ccccc2)c(-c2ccc(F)c(C)c2)c1` (configuration not stated): 75 to 85 °C; `Cc1ccc(C(=O)O)c([N+](=O)[O-])c1`: 156 to 157 °C; `CCCCc1nc(Cl)c(CO)n1Cc1ccc2oc(-c3ccccc3-c3nnn[nH]3)c(Br)c2c1`: 193 to 197 °C.
Turning to `Cn1c(-c2ccc(Cl)cc2)c(C#N)c(Br)c1C(F)(F)F`, the melting point is 126 to 129 °C.
Next, `C[C@@H]1S[C@@H](C(=O)Nc2ccc(CN3CCSC3)cc2)Cc2cc3c(cc2C1=O)OCO3`: 179 to 181 °C; `O=P(O)(O)C1CC(c2ccc(F)cc2)=NO1` (configuration not stated): 206 °C.
`C=Cc1ccc(CN2C(=O)c3ccccc3C2=O)c2ccccc12` registered a melting point of 146 to 147 °C.
For the compound `CSc1cnc(NC(=O)c2cccc(OC(C)=O)c2)s1`, the melting point fell in the range of 135 to 136 °C.
In turn, `NS(=O)(=O)c1ccc(CCCNCC(O)c2ccccc2)cc1` (configuration not stated) returned a melting point of 165 to 166 °C.
For `O=C(O)c1cc(-c2ncc(C(F)(F)F)cc2Cl)ccc1Cl`, the melting point lay in the range of 149 to 151 °C.
In turn, `CCc1cc(Cl)cc2[nH]c(C(=O)O)cc(=O)c12` showed a melting point of 282 to 283 °C.
Consider `CC(=O)Nc1nsc2ccc(NS(=O)(=O)c3cc(Cl)ccc3Cl)cc12`, for which the melting point fell in the range of 169 to 172 °C.
As for `CC1(C)C=C(c2ccccn2)c2cc(Cl)ccc2OC1`, the melting point was found to be 100 °C.
On to `NC(Cc1ccccc1)C(O)C1=NCCS1` (mixture of isomers), for which the melting point lay in the range of 82.3 to 90 °C.
`Cc1csc(C(=O)c2[nH]c3ccc(Cl)cc3c2CC(=O)O)n1` gave a melting point of 218 to 220 °C.
`C[C@H](NC(=O)Cc1cc(F)cc(F)c1)C(=O)N[C@@H]1C(=O)Nc2ccccc2S[C@@H]1c1ccc(Br)s1` had a melting point of 139 to 140 °C.
Next, `O=C(NC1CCCCC1)c1ccc(Cn2cnc3ccccc32)cc1`: 189 to 191 °C; `CC(C)NC1=NS(=O)(=O)c2ccc(S(C)(=O)=O)cc2N1`: more than 300 °C; `COc1ccccc1CSc1c(O)cc(-c2ccccc2)oc1=O`: 152 to 153 °C.
